{
  "source": "paper PMC9880260",
  "about": "“Identification of compounds with activity against Trypanosoma cruzi within a collection of synthetic nucleoside analogs” (Frontiers in Cellular and Infection Microbiology, 2023)",
  "key": {"Vero cells": {"test_system": "Vero cells", "type": "cell-based", "settings": "green monkey, 96 h", "procedure": "(§1) Compounds were added to the plates and diluted following a dose-response pattern in assay medium. Vero cells were prepared in assay medium and added to each well as described ([Martinez-Peinado et al., 2020]). Each test plate contained its own negative (untreated cells) and positive (medium alone) control wells ([Martinez-Peinado et al., 2020]). BNZ and digitoxin (DTX) were included as non-toxicity and toxicity drug controls, respectively. Parallel assays with HepG2 cells were carried out to evaluate the toxicity of compounds in a human cell line as described ([Martinez-Peinado et al., 2020]). […] Vitality was measured with Alamar Blue (Thermo Fischer Scientific, Waltham, USA) to detect metabolically active (live) cells by fluorimetry. For this, a PBS dilution with 10% Alamar Blue was added to each well and the plates were incubated at 37°C for 6 h. Readout was performed on a TECAN Infinite M Nano+ reader (Tecan Trading AG, Männedorf, Switzerland) using i-control™ 2.0 software and setting excitation at 530 nm and emission at 590 nm."}, "HepG2 cells": {"test_system": "HepG2 cells", "assay": "HepG2 cell toxicity assay (Alamar Blue, 48 h)", "type": "cell-based, human", "procedure": "as §1"}, "[1]": {"test_system": "T. cruzi Tulahuen parasites", "settings": "Vero TC50 / anti-T. cruzi IC50", "description": "Trypomastigotes were isolated for the maintenance of the cycle and for the performance of the antiparasitic assays, respectively. Briefly, medium containing free swimming trypomastigotes was harvested in falcon tubes and centrifuged at 2,500 rpm for 10 minutes to remove cell debris. […] In the second case, another centrifugation was made to get rid of any PR remnants that may interfere in the assay readout.\nCompounds were added to a flat 96-well cell culture plate (SPL Life Sciences, Pocheon-si, Korea) and diluted in assay medium following a 1:2 dose-response pattern. Vero cells were detached, washed and counted using a Neubauer chamber. On the other side, T. cruzi trypomastigotes were collected and counted. Then, 50,000 trypomastigotes and 50,000 Vero cells were simultaneously added to each well to reach a final volume of 200 μl per well (multiplicity of infection or MOI = 1). […] Note that trypomastigotes are unable to multiply and therefore they mark the enzymatic time zero. In addition to those controls, BNZ-treated wells were also included as a positive control of drug inhibition. Plates were incubated at 37°C for 96 h. After that, chlorophenol red-β-D-galactopyranoside (CPRG) substrate was added to detect the enzymatic activity of β-galactosidase expressed by the parasites. […] Absorbance was measured at 590 nm in an Epoch Gene5 Microplate Spectrophotometer (BioTek, Winooski, USA).\n(§2) Half maximum inhibitory (IC50) and half maximum toxicity concentration (TC50) values were determined with GraphPad Prism 7 software (version 7.00, San Diego, USA) using a nonlinear regression analysis model defined by equation 2:\n(§3) Values were expressed as means with standard deviations (SD) of at least three independent experiments."}, "T. cruzi amastigotes": {"test_system": "T. cruzi amastigotes", "assay": "Amastigotes growth inhibition assay (infected Vero cells, 72 h, CPRG)", "settings": "for IC50: Trypanosoma cruzi, Vero, 72 h, read-out: [IC50] Anti-amastigote assay; for activity against amastigotes: active = IC50 ≤ 10× that of BNZ", "description": "Upon washing the monolayers with PBS, purified trypomastigotes were added at a concentration of 1×10^7 trypomastigotes per flask (MOI = 1) and infected monolayers were kept in assay medium. After 18 h, infected Vero cells were PBS-washed and trypsin-detached, diluted at a concentration of 5×10^5 cells per ml in assay medium and 100 μl of that solution (50000 cells) added to 96-well test plates already containing the compounds.\nas §2, §3"}, "[2]": {"assay": "Microscopy-based observation of compound dissolution / crystals in assay medium", "type": "physicochemical", "settings": "for solubility: compounds at 750 μM, read-out: solubility issues / crystals formed during the assays", "procedure": "Among the eight compounds selected, five carried the benzene ring group at position C8 illustrating the relevance of this substituent. Family by family, L4-0c was the only selected from L4-0.\nFigure S3. Crystals of the compounds [750 μM] formed during the assays. The eight compounds selected through the discovery cascade are shown in bold. Besides, those indicated with an asterisk too had solubility issues. BNZ is shown at 400 μM."}},
  "data": [
    {"compound": "O=C(Cn1ccnc1[N+](=O)[O-])NCc1ccccc1", "note": "[BNZ, benznidazole, reference compound]", "values": [
      {"measurement": "[TC50] Vero cells assays", "setting": "Vero cells", "value": "196.90 ± 30.67", "unit": "µM"},
      {"measurement": "[TC50] HepG2 assay", "setting": "HepG2 cells; human", "value": "490.90 ± 267.10", "unit": "µM"},
      {"measurement": "SI Vero cells assays (TC50/IC50)", "setting": "[1]", "value": 81.36},
      {"measurement": "IC50", "setting": "T. cruzi amastigotes", "value": "1.47 ± 0.08", "unit": "µM"}
    ]},
    {"compound": "Cc1nc2c(NCc3ccccc3)ncnc2n1Cc1ccccc1", "note": "[Compound L4-0b]", "values": [
      {"measurement": "[TC50] Vero cells assays", "setting": "Vero cells", "value": "68.16 ± 12.00", "unit": "µM"},
      {"measurement": "SI Vero cells assays (TC50/IC50)", "setting": "[1]", "value": 4.75}
    ]},
    {"compound": "c1ccc(CNc2ncnc3c2nc(-c2ccccc2)n3Cc2ccccc2)cc1", "note": "[Compound L4-0c]", "values": [
      {"measurement": "[TC50] Vero cells assays", "setting": "Vero cells", "value": "> 1,000 μM"},
      {"measurement": "[TC50] HepG2 assay", "setting": "HepG2 cells; human", "value": "> 10,000 μM"},
      {"measurement": "dissolution in assay medium (microscopy-based observation)", "setting": "[2]", "value": "failed to be completely dissolved"},
      {"measurement": "IC50", "setting": "T. cruzi amastigotes", "value": "11.2 ± 0.35", "unit": "µM"},
      {"measurement": "activity against amastigotes", "setting": "T. cruzi amastigotes", "value": "active"}
    ]},
    {"compound": "c1ccc(CCNc2ncnc3c2ncn3CCc2ccccc2)cc1", "note": "[Compound L4-1a]", "values": [
      {"measurement": "[TC50] Vero cells assays", "setting": "Vero cells", "value": "39.26 ± 4.81", "unit": "µM"},
      {"measurement": "SI Vero cells assays (TC50/IC50)", "setting": "[1]", "value": 2.59}
    ]},
    {"compound": "Cc1nc2c(NCCc3ccccc3)ncnc2n1CCc1ccccc1", "note": "[Compound L4-1b]", "values": [
      {"measurement": "[TC50] Vero cells assays", "setting": "Vero cells", "value": "55.91 ± 5.64", "unit": "µM"},
      {"measurement": "SI Vero cells assays (TC50/IC50)", "setting": "[1]", "value": 3.52}
    ]},
    {"compound": "c1ccc(CCNc2ncnc3c2nc(-c2ccccc2)n3CCc2ccccc2)cc1", "note": "[Compound L4-1c]", "values": [
      {"measurement": "[TC50] Vero cells assays", "setting": "Vero cells", "value": "> 1,000 μM"},
      {"measurement": "[TC50] HepG2 assay", "setting": "HepG2 cells; human", "value": "53.96 ± 12.33", "unit": "µM"},
      {"measurement": "IC50", "setting": "T. cruzi amastigotes", "value": "6.21 ± 0.29", "unit": "µM"},
      {"measurement": "activity against amastigotes", "setting": "T. cruzi amastigotes", "value": "active"}
    ]},
    {"compound": "COc1ccc(CNc2ncnc3c2nc(-c2ccccc2)n3Cc2ccc(OC)cc2)cc1", "note": "[Compound L4-2c]", "values": [
      {"measurement": "[TC50] Vero cells assays", "setting": "Vero cells", "value": "> 1,000 μM"},
      {"measurement": "[TC50] HepG2 assay", "setting": "HepG2 cells; human", "value": "> 10,000 μM"},
      {"measurement": "IC50", "setting": "T. cruzi amastigotes", "value": "6.19 ± 0.21", "unit": "µM"},
      {"measurement": "activity against amastigotes", "setting": "T. cruzi amastigotes", "value": "active"}
    ]},
    {"compound": "Clc1ccc(CNc2ncnc3c2ncn3Cc2ccc(Cl)cc2)cc1", "note": "[Compound L4-4a]", "values": [
      {"measurement": "[TC50] Vero cells assays", "setting": "Vero cells", "value": "> 1,000 μM"},
      {"measurement": "[TC50] HepG2 assay", "setting": "HepG2 cells; human", "value": "> 1,000 μM"},
      {"measurement": "IC50", "setting": "T. cruzi amastigotes", "value": "9.36 ± 0.4", "unit": "µM"},
      {"measurement": "activity against amastigotes", "setting": "T. cruzi amastigotes", "value": "active"}
    ]},
    {"compound": "Cc1nc2c(NCc3ccc(Cl)cc3)ncnc2n1Cc1ccc(Cl)cc1", "note": "[Compound L4-4b]", "values": [
      {"measurement": "[TC50] Vero cells assays", "setting": "Vero cells", "value": "27.01 ± 2.00", "unit": "µM"},
      {"measurement": "SI Vero cells assays (TC50/IC50)", "setting": "[1]", "value": 5.17}
    ]},
    {"compound": "Clc1ccc(CNc2ncnc3c2nc(-c2ccccc2)n3Cc2ccc(Cl)cc2)cc1", "note": "[Compound L4-4c]", "values": [
      {"measurement": "[TC50] Vero cells assays", "setting": "Vero cells", "value": "187.50 ± 54.14", "unit": "µM"},
      {"measurement": "[TC50] HepG2 assay", "setting": "HepG2 cells; human", "value": "164.80 ± 38.82", "unit": "µM"},
      {"measurement": "IC50", "setting": "T. cruzi amastigotes", "value": "4.2 ± 0.21", "unit": "µM"},
      {"measurement": "activity against amastigotes", "setting": "T. cruzi amastigotes", "value": "active"}
    ]},
    {"compound": "Brc1ccc(CCNc2ncnc3c2nc(-c2ccccc2)n3CCc2ccc(Br)cc2)cc1", "note": "[Compound L4-7c]", "values": [
      {"measurement": "[TC50] Vero cells assays", "setting": "Vero cells", "value": "909.20 ± 564.00", "unit": "µM"},
      {"measurement": "[TC50] HepG2 assay", "setting": "HepG2 cells; human", "value": "550.60 ± 130.00", "unit": "µM"},
      {"measurement": "IC50", "setting": "T. cruzi amastigotes", "value": "7.51 ± 0.79", "unit": "µM"},
      {"measurement": "activity against amastigotes", "setting": "T. cruzi amastigotes", "value": "active"}
    ]},
    {"compound": "Clc1cccc(CNc2ncnc3c2ncn3Cc2cccc(Cl)c2)c1", "note": "[Compound L4-8a]", "values": [
      {"measurement": "[TC50] Vero cells assays", "setting": "Vero cells", "value": "346.30 ± 189.30", "unit": "µM"},
      {"measurement": "[TC50] HepG2 assay", "setting": "HepG2 cells; human", "value": "35.21 ± 5.52", "unit": "µM"}
    ]},
    {"compound": "Cc1nc2c(NCc3cccc(Cl)c3)ncnc2n1Cc1cccc(Cl)c1", "note": "[Compound L4-8b]", "values": [
      {"measurement": "[TC50] Vero cells assays", "setting": "Vero cells", "value": "60.11 ± 8.50", "unit": "µM"},
      {"measurement": "[TC50] HepG2 assay", "setting": "HepG2 cells; human", "value": "17.77 ± 0.71", "unit": "µM"},
      {"measurement": "SI Vero cells assays (TC50/IC50)", "setting": "[1]", "value": 11.65}
    ]},
    {"compound": "Clc1cccc(CNc2ncnc3c2nc(-c2ccccc2)n3Cc2cccc(Cl)c2)c1", "note": "[Compound L4-8c, N,9-bis(3-chlorobenzyl)-8-phenyl-9H-purin-6-amine]", "values": [
      {"measurement": "[TC50] Vero cells assays", "setting": "Vero cells", "value": "> 1,000 μM"},
      {"measurement": "[TC50] HepG2 assay", "setting": "HepG2 cells; human", "value": "> 1,000 μM"},
      {"measurement": "dissolution in assay medium (microscopy-based observation)", "setting": "[2]", "value": "presence of crystals"},
      {"measurement": "solubility", "setting": "[2]", "value": "< 750", "unit": "µM"},
      {"measurement": "IC50", "setting": "T. cruzi amastigotes", "value": "7.61 ± 0.36", "unit": "µM"},
      {"measurement": "activity against amastigotes", "setting": "T. cruzi amastigotes", "value": "active"}
    ]},
    {"compound": "Cc1nc2c(NCc3ccccc3Cl)ncnc2n1Cc1ccccc1Cl", "note": "[Compound L4-9b]", "values": [
      {"measurement": "[TC50] Vero cells assays", "setting": "Vero cells", "value": "> 1,000 μM"},
      {"measurement": "[TC50] HepG2 assay", "setting": "HepG2 cells; human", "value": "372.20 ± 51.70", "unit": "µM"},
      {"measurement": "dissolution in assay medium (microscopy-based observation)", "setting": "[2]", "value": "presence of crystals"},
      {"measurement": "solubility", "setting": "[2]", "value": "< 750", "unit": "µM"},
      {"measurement": "IC50", "setting": "T. cruzi amastigotes", "value": "8.87 ± 0.42", "unit": "µM"},
      {"measurement": "activity against amastigotes", "setting": "T. cruzi amastigotes", "value": "active"}
    ]},
    {"compound": "Clc1ccccc1CNc1ncnc2c1nc(-c1ccccc1)n2Cc1ccccc1Cl", "note": "[Compound L4-9c]", "values": [
      {"measurement": "[TC50] Vero cells assays", "setting": "Vero cells", "value": "> 10,000 μM"},
      {"measurement": "[TC50] HepG2 assay", "setting": "HepG2 cells; human", "value": ">10,000 μM"},
      {"measurement": "SI Vero cells assays (TC50/IC50)", "setting": "[1]", "value": "> 10,000"},
      {"measurement": "IC50", "setting": "T. cruzi amastigotes", "value": "28.7 ± 2.34", "unit": "µM"},
      {"measurement": "activity against amastigotes", "setting": "T. cruzi amastigotes", "value": "inactive"}
    ]},
    {"compound": "C[C@H]1O[C@@H](O[C@H]2[C@@H](O)C[C@H](O[C@H]3[C@@H](O)C[C@H](O[C@H]4CC[C@@]5(C)[C@H](CC[C@@H]6[C@@H]5CC[C@]5(C)[C@@H](C7=CC(=O)OC7)CC[C@]65O)C4)O[C@@H]3C)O[C@@H]2C)C[C@H](O)[C@@H]1O", "note": "[DTX, digitoxin, reference compound]", "values": [
      {"measurement": "[TC50] HepG2 assay", "setting": "HepG2 cells; HepG2 cells, mean ± SD", "value": "1.29 ± 0.40", "unit": "µM"}
    ]}
  ]
}
